Source: PMC7767399, “Targeted Isolation of Anti-Trypanosomal Naphthofuran-Quinone Compounds from the Mangrove Plant Avicennia lanata” (Marine Drugs, 2020)
Values after ≈ are worked out from the molar mass of the structure shown. Like-named read-outs stand apart in the source and are kept apart here. Blank lines part the entries; values can stand above or below the compound they belong to.

How the values were obtained:
[1] = test system: epimastigotes of T. cruzi; set-up: method as in doi:10.1016/0960-894X(95)00248-R; settings: cited from earlier work
PNT2A cells = test: Cytotoxicity Alamar Blue assay on normal prostatic epithelial cells; assay type: cell-based, human; settings: 100 μg/mL, % of DMSO control values, n = 3
Description: Meanwhile, the initial screening for cytotoxicity activity of the isolated compounds was performed on human normal prostatic epithelial cells (PNT2A) at 100 μg/mL. […] In the initial screening, if the cell viability is less than 60%, a concentration response test at 0.3 to 300 μg/mL was carried on.
The pure compounds from mangrove plant, A. lanata were tested for cytotoxicity in vitro against human normal prostatic epithelial cell line (PNT2A) derived from ECACC (Sigma-Aldrich, Dorset, UK).
The cytotoxicity activity of the pure compounds was determined using the well-established Alamar Blue™ redox-based 96-well microplate assay, in which the screening procedure was modified from. PNT2A cells were seeded into 96-well microplate assay at density of 0.5 × 10^4 cells/well in 100 μL of Dulbecco’s modified Eagle’s medium (DMEM; Invitrogen, Paisley, UK) and incubated at 37 °C, 5% CO2 with a humidified atmosphere for 24 h. […] The microplate plate was incubated at 37 °C, 5% CO2 with a humidified atmosphere for 24 h, then 10 μL of Alamar blue was added. The microplate was further incubated for another 20 h, then the fluorescence was measured using a Wallac Victor 2 microplate reader (Perkin Elmer, Cambridge, UK) (excitation: 530 nm, emission 590 nm). The results were calculated as % of the DMSO control values.

[2] = test system: Giardia lamblia trophozoites; set-up: method as in doi:10.29356/jmcs.v56i2.305; settings: read-out: IC50 (giardicidal activity); cited from earlier work
T. b. rhodesiense = test system: T. b. rhodesiense; set-up: method as in PMID 21438586; settings: T. b. rhodesiense in vitro bloodstream trypomastigotes; cited from earlier work
T. b. brucei = test: Anti-trypanosomal Alamar blue 96-well microplate assay; assay type: cell-based, Trypanosoma brucei brucei S427 (blood stream form); settings: for anti-trypanosomal activity (in words): screening of extract/fractions at 20, 10 and 5 μg/mL, pure compounds by MIC; for MIC: read-out: MIC (minimum inhibitory concentration necessary to achieve 90% growth inhibition)
Description: Each fraction was screened at different concentrations of 20, 10 and 5 μg/mL. The assay was performed in duplicate for each sample.
MIC assays were performed for samples having greater than 90% inhibition at a concentration of 20 μM in the initial screening campaign. The MIC values of the isolated compounds against T. b. brucei were determined by averaging the results of two independent assays. The concentrations were averaged and converted to μM.
The activity of the pure compounds was tested in vitro against the blood stream form of Trypanosomal brucei brucei (T. b. brucei) S427. The activity of the samples was determined using the well-established Alamar blue™ 96-well microplate assay, in which the screening procedure was modified from the microplate Alamar blue assay, to determine the drug sensitivity of African trypanosomes. The samples were initially screened at one concentration (20 μg/mL crude extracts or fractions, 20 μM for pure compounds) to determine their in vitro activity. Stock solutions of tested samples in DMSO (Acros Organics BVBA, Janssen Pharmaceutical, Geel, Belgium) were prepared at concentrations of 10 mg/mL (extracts) or 10 mM for pure compounds. The concentration of DMSO should not exceed 0.5% of the final test solution.

T. cruzi = test system: T. cruzi; set-up: method as in earlier work; settings: cited from earlier work
[3] = test system: bloodstream strain of T. b. brucei; set-up: method as in PMID 17637068; settings: cited from earlier work
[4] = test system: epimastigotes of T. cruzi; set-up: method as in PMID 8788584; settings: read-out: 50% culture growth inhibition (GI50); cited from earlier work
[5] = different strains of T. cruzi epimastigotes, at 13–17 μM of the tested compounds
[6] = Trypanosoma brucei, T. b. brucei, two independent assays
[7] = T. b. brucei, two independent assays
[8] = T. cruzi epimastigotes, compounds with two methoxy groups on the benzene ring

Structure (SMILES): COc1ccc2c(c1)C(=O)c1cc(C(C)=O)oc1C2=O [2-acetyl-6-methoxynaphtho[2,3-b]furan4,9-quinone]
growth inhibition (GI) [1, 5]: 100%

MIC (T. b. brucei; [6]): 145 µM (≈ 62 µg/mL)
Structure (SMILES): CC1(C)CC[C@]2(C)CC=C3[C@]4(C)CC[C@H]5C(C)(C)[C@@H](O)CC[C@]5(C)[C@H]4CC[C@@]3(C)[C@@H]2C1 [Compound 7, taraxerol]
Cell viability, % of DMSO control (PNT2A cells): 92.8% | IC50 [2]: 37.8 µM | IC50 (T. b. rhodesiense): < 10 µM | anti-trypanosomal activity (in words) (T. b. brucei; T. b. brucei): inactive

MIC (T. b. brucei; [7]): 12.50 µM (≈ 4.11 µg/mL) | MIC (T. b. brucei; [6]): 12.5 µM (≈ 4.11 µg/mL)
Structure (SMILES): CC(C)=CCC12OC(C(C)(C)O)CC1C(=O)c1ccccc1C2=O (stereo not drawn) [Compound 5, glycoquinone]
Cell viability, % of DMSO control (PNT2A cells): 80.3%

Structure (SMILES): Cc1cccc2c1C(=O)c1c(CO)coc1C2=O [maturone]
trypanocidal activity (in words) (T. cruzi): potent trypanocidal activity

Structure (SMILES): CC[C@H](/C=C/[C@@H](C)[C@H]1CC[C@H]2[C@@H]3CC=C4C[C@@H](O)CC[C@]4(C)[C@H]3CC[C@]12C)C(C)C [Compound 9, stigmasterol]
Cell viability, % of DMSO control (PNT2A cells): 98.7% | anti-trypanosomal activity (in words) (T. b. brucei; T. b. brucei): very low activity | MIC (T. b. brucei; Trypanosoma brucei): 126 µM (≈ 52.2 µg/mL)

Structure (SMILES): CC[C@H](CC[C@@H](C)[C@H]1CC[C@H]2[C@@H]3CC=C4C[C@@H](O)CC[C@]4(C)[C@H]3CC[C@]12C)C(C)C [Compound 8, β-sitosterol]
Cell viability, % of DMSO control (PNT2A cells): 96.2% | anti-trypanosomal activity (in words) (T. b. brucei; T. b. brucei): inactive | MIC (T. b. brucei; Trypanosoma brucei): 142 µM (≈ 59 µg/mL)

MIC (T. b. brucei; [6]): 3.12 µM (≈ 0.8 µg/mL)
Structure (SMILES): CC(C)(O)c1cc2c(o1)C(=O)c1ccccc1C2=O [Compound 4, avicequinone C]
Cell viability, % of DMSO control (PNT2A cells): 68.6%

MIC (T. b. brucei; [6]): 154 µM (≈ 65.5 µg/mL)
Structure (SMILES): CC1(C)CC[C@]2(C)CC=C3[C@]4(C)CC[C@H]5C(C)(C)C(=O)CC[C@]5(C)[C@H]4CC[C@@]3(C)[C@@H]2C1 [Compound 6, taraxerone]
Cell viability, % of DMSO control (PNT2A cells): 88.8% | IC50 [2]: 26.7 µM | anti-trypanosomal activity (in words) (T. b. brucei; T. b. brucei): inactive

Structure (SMILES): COc1ccc2c(c1OC)C(=O)c1oc(C(C)=O)cc1C2=O [2-acetyl-7,8-dimethoxynaphtho[2,3-b] furan-4,9-quinone]
growth inhibition (GI) [1, 8]: 45%

MIC (T. b. brucei; [7]): 12.50 µM (≈ 4.11 µg/mL) | MIC (T. b. brucei; [6]): 12.5 µM (≈ 4.11 µg/mL)
Structure (SMILES): CC(C)=CCC12OC(C(C)(C)O)CC1=C(O)c1ccccc1C2=O (stereo not drawn) [Compound 2, glycosemiquinone]
Cell viability, % of DMSO control (PNT2A cells): 86.1%

Structure (SMILES): COc1ccc2c(c1OC)C(=O)c1ccoc1C2=O [5,6-dimethoxynaphtho [2,3-b]furan-4,9-quinone]
growth inhibition (GI) [1, 8]: 45%

Structure (SMILES): COc1ccc2c(c1)C(=O)c1cc(C(C)O)oc1C2=O (stereo not drawn) [2-(1-hydroxyethyl)-6-methoxynaphtho[2,3-b]furan-4,9-quinone]
growth inhibition (GI) [1, 5]: 100%

Structure (SMILES): Cc1ccc(C(=O)Nc2ccc(S(=O)(=O)O)c3cc(S(=O)(=O)O)cc(S(=O)(=O)O)c23)cc1NC(=O)c1cccc(NC(=O)Nc2cccc(C(=O)Nc3cc(C(=O)Nc4ccc(S(=O)(=O)O)c5cc(S(=O)(=O)O)cc(S(=O)(=O)O)c45)ccc3C)c2)c1 [suramin, reference compound]
MIC (T. b. brucei; Trypanosoma brucei): 0.11 µM (≈ 0.143 µg/mL)

MIC (T. b. brucei; [6]): 6.25 µM (≈ 1.8 µg/mL)
Structure (SMILES): COc1c2c(c(OC)c3ccccc13)OC(C(C)(C)O)C2 (stereo not drawn) [Compound 3, avicenol C]
Cell viability, % of DMSO control (PNT2A cells): 78.3%

Structure (SMILES): CC(C)(C)CC(C)(C)c1ccc(OCCO)cc1 [triton X, reference compound]
Cell viability, % of DMSO control (PNT2A cells): 0.082%

Structure (SMILES): CC1(C)CC[C@]2(C)CC[C@]3(C)C(=CC[C@@H]4[C@@]5(C)CC[C@H](O)C(C)(C)[C@@H]5CC[C@]43C)[C@@H]2C1 [β-amyrin]
IC50 [3]: 127 µM

Structure (SMILES): COc1ccc2c(c1OC)C(=O)c1oc(C(C)O)cc1C2=O (stereo not drawn) [2-(1-hydroxyethyl)-7,8-dimethoxynaphtho[2,3-b]furan-4,9-quinone]
growth inhibition (GI) [1, 8]: 22%

Structure (SMILES): COc1ccc2c(c1OC)C(=O)c1occc1C2=O [7,8-dimethoxynaphtho[2,3-b]furan-4,9-quinone]
growth inhibition (GI) [1, 8]: 25%

MIC (T. b. brucei; [7]): 12.50 µM (≈ 3.25 µg/mL) | MIC (T. b. brucei; [6]): 12.5 µM (≈ 3.25 µg/mL)
Structure (SMILES): CC(C)(O)C1Cc2c(c(O)c3ccccc3c2O)O1 (stereo not drawn) [Compound 1, 2-(2-hydroxypropan-2-yl)-2,3-dihydronaphtho-[2,3-b] furan-4,9-diol]
Cell viability, % of DMSO control (PNT2A cells): 86.1%

Structure (SMILES): CC1OC2=C(C(=O)c3ccccc3C2=O)C1(C)C (single isomer, unassigned; (-)) [(−)-2,3,3-trimethyl-2-3-dihydronaphtho [2,3-b]furan-4,9-quinone]
GI50 [4]: 2.1 to 5.2 µM
